Laboratory results reported in patent publication US5432164A, “C2,N^6 -disubstituted adenosine derivatives” (Novo Nordisk A/S, priority 1991, dated 1995).
Read-outs that look alike come from different tables or passages of the source.

How the values were obtained:
[1] = system: A1 receptor; conditions: literature, in words; cited from earlier work
[2] = molecular target: T1, adenosine A2 receptor (Rattus norvegicus, UniProt P30543); assay: In vitro binding to adenosine A2 receptor, radioligand [3H]-CGS 21680
T1 construct: from tissue
T1 sequence (P30543 whole entry): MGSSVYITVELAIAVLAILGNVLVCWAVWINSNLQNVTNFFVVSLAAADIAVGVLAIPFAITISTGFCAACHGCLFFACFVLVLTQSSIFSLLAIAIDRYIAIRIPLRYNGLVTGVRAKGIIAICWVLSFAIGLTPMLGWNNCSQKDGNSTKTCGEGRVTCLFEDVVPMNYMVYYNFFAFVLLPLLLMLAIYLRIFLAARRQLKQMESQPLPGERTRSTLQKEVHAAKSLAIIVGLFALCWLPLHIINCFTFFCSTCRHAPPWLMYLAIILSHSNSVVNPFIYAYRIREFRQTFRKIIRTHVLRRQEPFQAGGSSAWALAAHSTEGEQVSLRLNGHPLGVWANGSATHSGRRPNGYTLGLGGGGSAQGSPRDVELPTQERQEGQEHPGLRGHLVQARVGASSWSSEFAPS
Text: (§1) Evaluation of in vitro binding to adenosine A1 and A2 receptors.

[3] = system: mice; assay: DMCM induced seizures in mice, i.p. 30 min (protection against clonic convulsions); type: in vivo, male NMRI mice; conditions: Mus musculus, ip, 0.5 h, read-out: DMCM-ind. seizures (ED50, mg/kg)
Method: DMCM INDUCED SEIZURES IN MICE, I.P.30 min.
DMCM, 15 mg/kg, i.p., clonic convulsions
DMCM is an inverse agonist at the benzodiazepine receptor, presumably producing seizures by decreasing the potency of inhibition of the GABA receptor/benzodiazepine receptor/chloride ionophore complex (1).
15 mg/kg of DMCM dissolved in 0.02N HCl (1 mg/ml) is administered i.p. in a volume of 300 μl to male NMRI mice weighing 20±2 g. This induces two different responses: a) some animals manifest a brief loss of righting reflexes or take up an upright position in which they have a mild short clonus of the upper extremities, b) other animals manifest intense clonic and tonic convulsions of all extremities often followed by death. DMCM is administered 30 min. after an intraperitoneal injection of a test compound. The latency time for the presence of intense clonic and tonic convulsions and death is noted until 15 min. after administration of DMCM. At least 5 doses of each test compound are tested with 8 mice per dose.
This method is described in more detail in Eur. J. Pharmacol. 94, 117-124, 1983.

[4] = molecular target: T2, adenosine A1 receptor (Rattus norvegicus, UniProt P25099); assay: In vitro binding to adenosine A1 receptor, radioligand [3H]-L-PIA; conditions: for Ki: [3H]-L-PIA radioligand; for Ratio A2/A1: ratio of Ki A2/A1
T2 construct: from tissue
T2 sequence (P25099 1-326): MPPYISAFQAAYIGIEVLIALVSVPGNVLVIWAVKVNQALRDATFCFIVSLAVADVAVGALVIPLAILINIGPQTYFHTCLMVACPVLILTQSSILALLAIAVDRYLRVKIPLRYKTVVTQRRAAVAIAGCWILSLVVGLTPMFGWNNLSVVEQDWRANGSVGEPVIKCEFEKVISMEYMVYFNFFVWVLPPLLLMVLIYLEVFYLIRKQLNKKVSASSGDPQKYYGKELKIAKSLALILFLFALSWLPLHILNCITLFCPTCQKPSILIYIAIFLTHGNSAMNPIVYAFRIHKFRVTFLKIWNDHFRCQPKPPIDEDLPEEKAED
Text: as §1

[5] = [3H]-CGS 21680 radioligand, read-out: A2 Receptor Binding (Ki)
[6] = mice, test compound i.p. 30 min before DMCM 15 mg/kg i.p., dose protecting 50% against clonic convulsions

Row | SMILES | selectivity for the A1 receptor over the A2 receptor [1] | Ki [2] [nM] | ED50 [3] [mg/kg] | Ki [2, 5] [nM] | ED50 [3, 6] [mg/kg] | Ki [4] [nM] | Ratio A2/A1 [4]
1 | OC[C@H]1O[C@@H](n2cnc3c(NC4CCCC4)nc(Cl)nc32)[C@H](O)[C@@H]1O [2-chloro-N-cyclopentyladenosine] | most selective for the A1 receptor over the A2 receptor |  |  |  |  |  | 
2 | OC[C@H]1O[C@@H](n2cnc3c(NC4CCCC4)ncnc32)[C@H](O)[C@@H]1O [CPA, N-(cyclopentyl)adenosine, reference compound] |  | 173 | 0.2 |  |  |  | 
3 | OC[C@H]1O[C@@H](n2cnc3c(NN4CCCCC4)nc(Cl)nc32)[C@H](O)[C@@H]1O [Example 5, 2-Chloro-N-(1-piperidinyl)adenosine] |  |  |  | 691 | 0.1 | 4 | 173
4 | OC[C@H]1O[C@@H](n2cnc3c(NN4CCCCC4)nc(F)nc32)[C@H](O)[C@@H]1O [Example 9, 2-Fluoro-N-(1-piperidinyl)adenosine] |  |  |  | 1140 | 0.7 | 4 | 289
5 | OC[C@H]1O[C@@H](n2cnc3c(NN4CCCC(Oc5ccccc5)C4)nc(Cl)nc32)[C@H](O)[C@@H]1O (stereo partly shown) [Example 16, 2-Chloro-N-(3-phenoxy-1-piperidinyl)adenosine] |  |  |  | 1730 | 1 | 11 | 158
6 | OC[C@H]1O[C@@H](n2cnc3c(NN4CCC(Oc5ccccc5)CC4)nc(Cl)nc32)[C@H](O)[C@@H]1O [Example 17, 2-Chloro-N-[4-phenoxy-1-piperidinyl]adenosine] |  |  |  | 1200 | 0.9 |  | 857
7 | CC(Cc1ccccc1)Nc1ncnc2c1ncn2[C@@H]1O[C@H](CO)[C@@H](O)[C@H]1O (stereo partly drawn) [L-PIA, N-(1-phenyl-2-propyl)adenosine, reference compound] |  |  | 0.1 |  |  |  | 
